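Briefly, cells in 96-well plates were exposed to five compound concentrations for 48 h, and endpoints were estimated by linear interpolation. TGI: total growth inhibition.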

This note sets out measurements from PubChem BioAssay (NCI).

Among the test systems are A498 renal; NCI-H522 lung; M14 melanoma; SW-620 colon; NCI-H23 lung; SK-OV-3 ovarian; DLD-1 colon; SF-295 CNS; KM20L2 colon; K-562 leukemia; CCRF-CEM leukemia; HOP-62 NSCLC; RXF 393 renal; IGROV1 ovarian; EKVX NSCLC; CAKI-1 renal; COLO 205 colon; HCT-116 colon; UO-31 renal; HS 578T breast.
Common to all, as to experiment: NCI anticancer screen, dose series, 48 h

Take `N#Cc1ccccc1NC(=O)C(=O)C(C(=O)c1ccncc1)C1OC(=O)c2ccccc21` (configuration not stated): the TGI in the test with A498 renal, in the test with NCI-H522 lung, with M14 melanoma, in the test with SW-620 colon, in the test on NCI-H23 lung and in the test with SK-OV-3 ovarian was above 100 µM in each case. Also, the TGI with DLD-1 colon, in the test with SF-295 CNS, in the test on KM20L2 colon, in the test with K-562 leukemia, in the test on CCRF-CEM leukemia and with HOP-62 NSCLC was above 100 µM each time. For the same compound, the TGI in the test with RXF 393 renal, in the test with IGROV1 ovarian, in the test with EKVX NSCLC, with CAKI-1 renal, in the test on COLO 205 colon and in the test on HCT-116 colon was above 100 µM each time. The same compound returned a TGI in the test with UO-31 renal above 100 µM.

Turning to `Cc1nc(-n2nc(-c3ccccc3)cc2-c2ccccc2)sc1C(=O)/C=C/c1ccc([N+](=O)[O-])cc1`, the TGI was above 65.8 µM in the test with A498 renal; 66.1 µM with NCI-H522 lung; 94.7 µM in the test with M14 melanoma; above 71.2 µM with SW-620 colon; above 54.9 µM with NCI-H23 lung; above 100 µM in the test with SK-OV-3 ovarian. Further, the TGI is 36.2 µM with DLD-1 colon; above 100 µM in the test with SF-295 CNS; above 100 µM in the test on KM20L2 colon; above 70.6 µM in the test with K-562 leukemia; 48.1 µM in the test on CCRF-CEM leukemia; above 94.4 µM in the test on HOP-62 NSCLC. The TGI in the test on RXF 393 renal was 49.3 µM; in the test with IGROV1 ovarian, above 100 µM; with HS 578T breast it was above 100 µM; in the test with EKVX NSCLC, above 100 µM; in the test with CAKI-1 renal, above 55 µM; with COLO 205 colon, above 80.6 µM. Moreover, the values for the TGI in the test on HCT-116 colon and with UO-31 renal were 28.3 µM and above 54 µM, respectively.

On to `Nc1ccn(CCOC(c2ccccc2)P(=O)(O)O)c(=O)n1` (configuration not stated), for which the TGI in the test with A498 renal, in the test on NCI-H522 lung, with SW-620 colon, in the test on NCI-H23 lung, in the test with SK-OV-3 ovarian and with DLD-1 colon was above 100 µM each time. Also, the TGI in the test with SF-295 CNS, in the test with KM20L2 colon, in the test on CCRF-CEM leukemia, with RXF 393 renal, in the test on IGROV1 ovarian and in the test with EKVX NSCLC was above 100 µM throughout. Also, the TGI in the test with CAKI-1 renal, in the test with COLO 205 colon, with HCT-116 colon and with UO-31 renal was above 100 µM throughout.

`CCCCCCCC(=O)OCC1OC(n2cc(F)c(=O)[nH]c2=O)C(N)C(O)C1O` (configuration not stated): the TGI in the test with A498 renal, with NCI-H522 lung, in the test with M14 melanoma, with SW-620 colon, with NCI-H23 lung and in the test on SK-OV-3 ovarian was above 100 µM each time. The TGI in the test with DLD-1 colon, in the test on SF-295 CNS, with KM20L2 colon, with K-562 leukemia, with CCRF-CEM leukemia and in the test on HOP-62 NSCLC was above 100 µM in each case. The TGI with RXF 393 renal, with IGROV1 ovarian, in the test on EKVX NSCLC, in the test on CAKI-1 renal, in the test on COLO 205 colon and in the test on HCT-116 colon was above 100 µM in each case. Moreover, the TGI in the test with UO-31 renal is above 100 µM.

Regarding `CCc1ccc(Cc2ccc(CC)c(NC(=O)C(=O)C3NC(=S)NC3=O)c2CC)c(CC)c1NC(=O)C(=O)C1NC(=S)NC1=O` (configuration not stated), the TGI in the test on A498 renal, in the test on NCI-H522 lung, in the test with M14 melanoma, in the test with SW-620 colon, in the test on NCI-H23 lung and in the test on SK-OV-3 ovarian was above 100 µM throughout. Moreover, the TGI in the test with DLD-1 colon, in the test on KM20L2 colon, in the test on K-562 leukemia, in the test with CCRF-CEM leukemia, with HOP-62 NSCLC and in the test with RXF 393 renal was above 100 µM in each case. The TGI in the test with IGROV1 ovarian, in the test with EKVX NSCLC, in the test with CAKI-1 renal, with COLO 205 colon, in the test on HCT-116 colon and with UO-31 renal was above 100 µM throughout.

On to `CC(C)c1cccc(C(C)C)c1NC(=O)C(=O)C1CCC2=C(Sc3ccccc3N2)C1=O` (configuration not stated), for which the TGI in the test on A498 renal was above 100 µM; in the test on M14 melanoma, above 100 µM; in the test on SW-620 colon, 32.5 µM; in the test with NCI-H23 lung, above 100 µM; with SK-OV-3 ovarian, above 100 µM; in the test on DLD-1 colon it was above 100 µM. Moreover, the TGI in the test with SF-295 CNS, in the test on KM20L2 colon, with K-562 leukemia, in the test on CCRF-CEM leukemia, in the test on HOP-62 NSCLC and in the test on RXF 393 renal was above 100 µM each time. For the same compound, the TGI in the test with IGROV1 ovarian was above 100 µM; with EKVX NSCLC, above 100 µM; in the test on CAKI-1 renal, above 100 µM; with COLO 205 colon, 79.7 µM; in the test on HCT-116 colon, above 100 µM; with UO-31 renal, above 100 µM.

For the compound `CCc1cccc(C(C)CC)c1NC(=O)C(=O)Cc1nc2ccccc2o1` (configuration not stated), the TGI in the test on A498 renal, with NCI-H522 lung, with M14 melanoma, in the test on SW-620 colon, in the test on NCI-H23 lung and in the test on SK-OV-3 ovarian was above 50 µM throughout. Further, the TGI with DLD-1 colon, in the test with SF-295 CNS, with KM20L2 colon, in the test with K-562 leukemia, in the test on CCRF-CEM leukemia and in the test on HOP-62 NSCLC was above 50 µM throughout. Besides, the TGI in the test with RXF 393 renal, with IGROV1 ovarian, in the test on EKVX NSCLC, in the test on CAKI-1 renal, in the test on COLO 205 colon and with HCT-116 colon was above 50 µM throughout. The compound further yielded a TGI in the test with UO-31 renal above 50 µM.

Regarding `O=c1[nH]nc(CNc2ccc(Cl)cc2Cl)c2ccccc12`, the TGI is 33.7 µM in the test with A498 renal; 41.7 µM with NCI-H522 lung; above 100 µM in the test with M14 melanoma; above 100 µM in the test with SW-620 colon; 38.1 µM with SK-OV-3 ovarian; 90.6 µM with DLD-1 colon. Further, the TGI in the test on SF-295 CNS was 44.7 µM; in the test on KM20L2 colon it was 75.2 µM; in the test with K-562 leukemia, above 100 µM; with CCRF-CEM leukemia it was above 100 µM; with HOP-62 NSCLC, 43 µM; in the test on RXF 393 renal, 34.9 µM. Further, the TGI in the test on IGROV1 ovarian was 58.7 µM; with EKVX NSCLC it was 85.7 µM; in the test with CAKI-1 renal, 51.7 µM; with COLO 205 colon it was above 100 µM; in the test with HCT-116 colon, 66.3 µM; with UO-31 renal, 33.7 µM.

`O=C(O[C@H]1[C@@H]2C=CO[C@@H](OC3OC(CO)C(O)C(O)C3O)[C@@H]2[C@@]2(CO)O[C@@H]12)c1ccc(O)c(O)c1` (some centres not stated): the TGI with A498 renal, in the test on NCI-H522 lung, in the test with M14 melanoma, in the test on SW-620 colon, in the test on NCI-H23 lung and in the test on SK-OV-3 ovarian was above 100 µM each time. Besides, the TGI with DLD-1 colon, in the test on SF-295 CNS, in the test on KM20L2 colon, in the test with K-562 leukemia, with CCRF-CEM leukemia and in the test on HOP-62 NSCLC was above 100 µM each time. Further, the TGI in the test with RXF 393 renal, in the test on IGROV1 ovarian, in the test with EKVX NSCLC, in the test on CAKI-1 renal, in the test with COLO 205 colon and in the test with UO-31 renal was above 100 µM each time.

For `C#CC(C)(C)OCCCCOc1cc(O)c2c(=O)c3ccccc3n(C)c2c1`, the TGI in the test on A498 renal, with NCI-H522 lung, with M14 melanoma, with SW-620 colon, in the test with NCI-H23 lung and in the test with SK-OV-3 ovarian was above 100 µM each time. For the same compound, the TGI in the test with DLD-1 colon, in the test on SF-295 CNS, in the test on KM20L2 colon, in the test with K-562 leukemia, in the test on CCRF-CEM leukemia and in the test with HOP-62 NSCLC was above 100 µM throughout. For the same compound, the TGI in the test on RXF 393 renal was above 100 µM; in the test on IGROV1 ovarian it was above 100 µM; with EKVX NSCLC it was above 100 µM; in the test with CAKI-1 renal it was above 100 µM; with COLO 205 colon, 80.4 µM; with HCT-116 colon, above 100 µM. Also, the TGI in the test with UO-31 renal was above 100 µM.

`O=C1NC(=S)NC(=O)C1=CC1CC1`: the TGI with A498 renal, with NCI-H522 lung, in the test on M14 melanoma, with SW-620 colon, in the test on NCI-H23 lung and in the test with SK-OV-3 ovarian was above 100 µM throughout. The TGI with DLD-1 colon, with SF-295 CNS, in the test with KM20L2 colon, in the test on K-562 leukemia, with CCRF-CEM leukemia and in the test with HOP-62 NSCLC was above 100 µM throughout. Further, the TGI with RXF 393 renal, in the test on IGROV1 ovarian, in the test on EKVX NSCLC, with CAKI-1 renal, with COLO 205 colon and in the test on HCT-116 colon was above 100 µM in each case. The compound also registered a TGI with UO-31 renal above 100 µM.

On to `CSc1ccc2c(cc1=O)C(NC(=O)c1ccccc1)CCc1cc(O)c(O)c(O)c1-2` (configuration not stated), for which the TGI is 56.9 µM with A498 renal; 35.6 µM in the test on NCI-H522 lung; 35.7 µM in the test with M14 melanoma; 29.1 µM with SW-620 colon; 24.7 µM in the test with NCI-H23 lung; above 100 µM in the test with SK-OV-3 ovarian. Moreover, the TGI was 32.7 µM in the test on DLD-1 colon; above 100 µM in the test with SF-295 CNS; 3.62 µM with KM20L2 colon; 37.2 µM in the test on K-562 leukemia; above 100 µM in the test with CCRF-CEM leukemia; 57.8 µM with HOP-62 NSCLC. The TGI was above 100 µM in the test on RXF 393 renal; 66.1 µM in the test on IGROV1 ovarian; above 100 µM in the test on EKVX NSCLC; 88 µM in the test on CAKI-1 renal; 73.4 µM in the test with COLO 205 colon; 36.4 µM in the test on HCT-116 colon. The same compound yielded a TGI in the test on UO-31 renal above 100 µM.
